# In patent publication US20250101011A1, “PEPTIDYL NITRILE COMPOUND AND USE THEREOF” (SHANGHAI YIDIAN PHARMACEUTICAL TECHNOLOGY DEVELOPMENT CO., …, priority 2022, published 2025):
# Experiments:
# [1] = biological target: rhCathepsin C/DPP1 (Homo sapiens (Human), UniProt P53634); assay: Test for inhibition of DPP1 enzyme activity; assay type: biochemical; conditions: recombinant human cathepsin C/DPP1; substrate Gly-Arg-AMC
# Experimental: Recombinant human cathepsin, rhCathepsin C/DPP1, purchased from R&D systems
# Gly-Arg-AMC (hydrOCHloride), purchased from Cayman chemical
# • 1) Preparation and handling of compounds: Accurately weigh the compound and dissolve it in […] of DMSO to prepare a […] of the bulk, which is further diluted as required. • 2) Screening test: Dilute recombinant human cathepsin rhCathepsin C/DPP1 and recombinant human cathepsin rhCathepsin L with an activating buffer solution, and incubate at 37° C. for 60 min. Add 4 μL of test compound to the white well of the 384-well plate. Add 4 μL of the enzyme mixture after incubation to the white wells. Block the 384-well plate and allow to stand at room temperature for 30 min, and add 8 μL of 2-fold diluted Gly-Arg-AMC (hydrochloride). Block the 384-well plate and allow to stand at room temperature for 2 h. Prepare 4× stop solution and add 4 μL stop solution to white wells. Read fluorescence data on the fluorescence meter Victor Nivo35. • 3) Data analysis:
# […] using Prism Graphpad 8.0.
# [2] = biological target: DPP1 (Homo sapiens (Human), UniProt P53634); assay: DPP1 activity inhibition test on U937 cells; assay type: cell-based; conditions: substrate h-Gly-phe-AFC; for inhibition at 0.005 µM: U-937, 5 nM compound; for inhibition at 0.05 µM: U-937, 50 nM compound; for IC50: intracellular enzyme activity
# DPP1, sequence (P53634 25-463): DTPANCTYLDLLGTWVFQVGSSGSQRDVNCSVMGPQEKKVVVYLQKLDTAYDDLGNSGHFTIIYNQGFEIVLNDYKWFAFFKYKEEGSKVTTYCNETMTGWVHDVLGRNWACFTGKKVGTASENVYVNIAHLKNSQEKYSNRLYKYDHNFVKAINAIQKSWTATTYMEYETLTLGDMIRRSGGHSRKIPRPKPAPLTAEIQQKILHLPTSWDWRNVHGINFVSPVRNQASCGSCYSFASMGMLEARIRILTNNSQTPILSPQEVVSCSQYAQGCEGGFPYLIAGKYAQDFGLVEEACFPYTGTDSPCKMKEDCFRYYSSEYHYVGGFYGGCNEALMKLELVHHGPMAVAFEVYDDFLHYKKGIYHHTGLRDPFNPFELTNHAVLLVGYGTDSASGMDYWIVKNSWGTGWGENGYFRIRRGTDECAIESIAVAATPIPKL
# Experimental: After incubation at 37° C. for 1 h, add h-Gly-phe-AFC (10 μL) to each well and start reaction.
# rhCathepsin C/DPP1, sequence (P53634 25-134): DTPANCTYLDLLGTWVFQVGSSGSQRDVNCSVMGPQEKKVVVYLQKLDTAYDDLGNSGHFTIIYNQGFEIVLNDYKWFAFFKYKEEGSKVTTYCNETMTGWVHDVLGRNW
# rhCathepsin C/DPP1, sequence (P53634 231-394): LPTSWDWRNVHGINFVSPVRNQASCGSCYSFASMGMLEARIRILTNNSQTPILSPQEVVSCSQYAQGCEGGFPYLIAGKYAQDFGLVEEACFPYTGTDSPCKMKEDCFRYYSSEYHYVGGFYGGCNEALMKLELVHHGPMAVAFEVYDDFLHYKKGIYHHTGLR
# rhCathepsin C/DPP1, sequence (P53634 395-463): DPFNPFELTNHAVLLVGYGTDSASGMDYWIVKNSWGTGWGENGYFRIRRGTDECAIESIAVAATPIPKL
SMILES,IC50 [1] [nM],inhibition at 0.005 µM [2] [%],inhibition at 0.05 µM [2] [%],IC50 [2] [nM]
N#C[C@H](Cc1ccc(-c2ccc3oc(=O)n(CF)c3c2)cc1)NC(=O)[C@@H]1CNCCCO1 [Compound D02],4.1,30 to 75,75 to 100,5.7
N#C[C@H](Cc1ccc(-c2ccc3oc(=O)n(C(F)F)c3c2)cc1)NC(=O)[C@@H]1CNCCCO1 [Compound D04],3.9,30 to 75,75 to 100,5.2
N#C[C@H](Cc1ccc(-c2ccc3c(c2)CCC3=O)cc1)NC(=O)[C@@H]1CNCCCO1 [Compound D09],5.4,30 to 75,75 to 100,10
N#C[C@H](Cc1ccc(-c2ccc3c(c2)C2(COC2)OC3=O)cc1)NC(=O)[C@@H]1CNCCCO1 [Compound D21],8,30 to 75,75 to 100,29
N#C[C@H](Cc1ccc(-c2ccc3c(c2)C2(CCN(C4COC4)CC2)OC3)cc1)NC(=O)[C@@H]1CNCCCO1 [Compound D26],3.1,30 to 75,75 to 100,16
N#C[C@H](Cc1ccc(-c2ccc3c(c2)COC3=O)cc1)NC(=O)[C@@H]1CNCCCO1 [Compound D44],5.2,30 to 75,75 to 100,14
N#C[C@H](Cc1ccc(-c2ccc3c(c2)CCC3=O)cc1F)NC(=O)[C@@H]1CNCCCO1 [Compound D60],3.7,30 to 75,75 to 100,4.6
N#C[C@H](Cc1ccc(-c2ccc3c(c2)C2(CCN(C4COC4)CC2)OC3=O)cc1F)NC(=O)[C@@H]1CNCCCO1 [Compound D92],0.32,30 to 75,75 to 100,5.9
C[C@H]1CNC[C@@H](C(=O)N[C@H](C#N)Cc2ccc(-c3ccc4c(c3)N(C)CCC4=O)cc2F)OC1 [Compound D124],11.2,,,
CN1CCC(=O)c2ccc(-c3ccc(C[C@@H](C#N)NC(=O)[C@@H]4CNCCCO4)cc3)cc21 [Compound D125],6.7,,,
C[C@H]1OC(=O)c2ccc(-c3ccc(C[C@@H](C#N)NC(=O)[C@@H]4CNCCCO4)[se]3)cc21 [Compound D126],10.8,,,
[2H]C([2H])([2H])[C@H]1OC(=O)c2ccc(-c3ccc(C[C@@H](C#N)NC(=O)[C@@H]4CNCCCO4)c(F)c3)cc21 [Compound D127],4.2,,,4.6

# More lines, in order of falling IC50 [1], values ahead:
IC50 [1] [nM],inhibition at 0.005 µM [2] [%],inhibition at 0.05 µM [2] [%],IC50 [2] [nM],SMILES
3.6,30 to 75,75 to 100,35,CN1CC2(C1)OCc1ccc(-c3ccc(C[C@@H](C#N)NC(=O)[C@@H]4CNCCCO4)cc3)cc12 [Compound D20]
3.5,30 to 75,75 to 100,41,CN1CC2(C1)OC(=O)c1ccc(-c3ccc(C[C@@H](C#N)NC(=O)[C@@H]4CNCCCO4)cc3)cc12 [Compound D19]
3.2,30 to 75,75 to 100,3,CC1CNC[C@@H](C(=O)N[C@H](C#N)Cc2ccc(-c3ccc4oc(=O)n(C)c4c3)cc2F)OC1 (stereo partly shown) [Compound D85]
2.9,30 to 75,75 to 100,8,C[C@@H]1OC(=O)c2ccc(-c3ccc(C[C@@H](C#N)NC(=O)[C@@H]4CNCCCO4)c(F)c3)cc21 [Compound D74]
2.5,30 to 75,75 to 100,5.3,N#C[C@H](Cc1ccc(-c2ccc3c(c2)COC3=O)cc1F)NC(=O)[C@@H]1CNCCCO1 [Compound D61]
2.5,30 to 75,75 to 100,3.8,CC1OC(=O)c2ccc(-c3ccc(C[C@@H](C#N)NC(=O)[C@@H]4CNCCCO4)c(F)c3)cc21 (stereo partly shown) [Compound D73]
2.3,30 to 75,75 to 100,3.8,C[C@H]1OC(=O)c2ccc(-c3ccc(C[C@@H](C#N)NC(=O)[C@@H]4CNCCCO4)c(F)c3)cc21 [Compound D75]
2.3,,,3.42,CCN1CCC(=O)c2ccc(-c3ccc(C[C@@H](C#N)NC(=O)[C@@H]4CNCCCO4)c(F)c3)cc21 [Compound D120]
2.2,30 to 75,75 to 100,10,N#C[C@H](Cc1ccc(-c2ccc3c(c2)C2(CN(C4COC4)C2)OC3)cc1F)NC(=O)[C@@H]1CNCCCO1 [Compound D57]
1.7,30 to 75,75 to 100,6.1,Cn1cc(-n2c(=O)oc3ccc(-c4ccc(C[C@@H](C#N)NC(=O)[C@@H]5CNCCCO5)c(F)c4)cc32)cn1 [Compound D63]
1.6,,,2.1,CN1CCC(=O)c2ccc(-c3ccc(C[C@@H](C#N)NC(=O)[C@@H]4CNCCCO4)c(F)c3)cc21 [Compound D118]
1.4,,,15,C[C@H]1OC(=O)c2ccc(-c3ccc(C[C@@H](C#N)NC(=O)[C@@H]4CNC[C@@H](F)CO4)c(F)c3)cc21 [Compound D123]
1.36,,,4.3,N#C[C@H](Cc1ccc(-c2ccc3sc(=O)n(C4COC4)c3c2)cc1F)NC(=O)[C@@H]1CNCCCO1 [Compound D106]
0.72,30 to 75,75 to 100,2.9,N#C[C@H](Cc1ccc(-c2ccc3c(c2)COC3=O)cc1F)NC(=O)[C@@H]1CNCC2(CC2)CO1 [Compound D78]
0.58,30 to 75,75 to 100,13.2,CN1CC(n2c(=O)sc3ccc(-c4ccc(C[C@@H](C#N)NC(=O)[C@@H]5CNCCCO5)c(F)c4)cc32)C1 [Compound D70]
0.45,30 to 75,75 to 100,3,Cn1c(=O)oc2ccc(-c3ccc(C[C@@H](C#N)NC(=O)[C@@H]4CNCC5(CC5)CO4)c(F)c3)cc21 [Compound D46]
0.18,30 to 75,75 to 100,32,CN1CC(n2c(=O)oc3ccc(-c4ccc(C[C@@H](C#N)NC(=O)[C@@H]5CNCCCO5)c(F)c4)cc32)C1 [Compound D67]
